According to EP0129499B1, “13-Alpha-alkyl gonanes, their preparation and pharmaceutical compositions containing them” (SCHERING AKTIENGESELLSCHAFT, priority 1983, dated 1984):

How the values were obtained:
[1] = tested on: weiblichen Ratten; experiment: Abortive effect in an advanced phase post nidationem (Experiment II), treatment d 13-15 p.c., s.c.; format: in vivo; conditions: 3-day s.c. administration of 3,0 mg/d, rat
From the text: (§1) Zur Kennzeichnung der antigestagenen Wirkung der erfindungsgemässen Verbindungen wurde die abortive Wirkung in einer frühen Phase post nidationem (Experiment I) und in einer fortgeschrittenen Phase post nidationem (Experiment II) untersucht.
(§2) Die Versuche wurden an weiblichen Ratten im Gewicht von ca. 200 g durchgeführt. Nach erfolgter Anpaarung wurde der Schwangerschaftsbeginn durch Nachweis von Spermien in Vaginalabstrichen gesichert. Der Tag des Spermiennachweises gilt als Tag 1 der Gravidität (= d 1 p.c.).
(§3) Die Behandlung der Tiere mit der jeweils zu testenden Substanz bzw. dem Lösungsmittel erfolgte nach der Nidation der Blastocysten von d 5 p.c. bis d 7 p.c. (Experiment I) bzw. d 13 p.c. bis d 15 p.c. (Experiment II). An d 9 p.c. bzw. d 17 p.c. wurden die Tiere getötet und die Uteri auf Implantate und Resorptionsstellen hin untersucht. Von allen Uteri wurden Fotos angefertigt. Das Fehlen von Implantaten wurde als Abort gewertet.
(§4) Als Antigestagene wurden untersucht: • A: 11β-(4-Dimethylaminophenyl)-17β-hydroxy- 17a-propinyl-4,9-estradien-3-on (Referenzsubstanz). • B: 11 β-(4-Dimethylaminophenyl)-17β-hydroxy-17a- (3-hydroxypropyl)-13a-methyl-4,9-go- nadien-3-on (gemäss Erfindung). • C: 11β-(4-Dimethylaminophenyl)-17α-hydroxy-17ß- (3-hydroxypropyl)-13a-methyl-4,9-go- nadien-3-on (gemäss Erfindung).
Die Testsubstanzen wurden in einem Benzylbenzoat-Rizinusöl-Gemisch (Verhältnis 1:4) gelöst. Das Vehikelvolumen pro Einzeldosis betrug 0,2 ml. Die Behandlung erfolgte subcutan (s.c.). […]

[2] = tested on: weiblichen Ratten; experiment: Abortive effect in an early phase post nidationem (Experiment I), treatment d 5-7 p.c., s.c.; format: in vivo; conditions: frühgravide Ratte; for Abortrate: Dosierungen ≧ 1,0 mg/d, absence of implants at d 9 p.c. counted as abortion
From the text: as §1, §2, §3, §4
Die Testsubstanzen wurden in einem Benzylbenzoat-Rizinusöl-Gemisch (Verhältnis 1:4) gelöst. Das Vehikelvolumen pro Einzeldosis betrug 0,2 ml. Die Behandlung erfolgte subcutan (s.c.). [drawing 1] worin [drawing 2] mit R^1 und R" in der Bedeutung von Wasserstoff oder Alkyl mit 1 bis 4 Kohlenstoffatomen oder R^I und R" unter Einschluss von N in der Bedeutung eines gesättigten 5- oder 6-gliedrigen Ringes, wobei im Ring ausser N noch ein weiteres Heteroatom wie 0, N, S enthalten sein kann, sowie die entsprechenden tertiären N-Oxide und die Säureadditionssalze, • -OR^III mit R"' in der Bedeutung von Methyl, Ethyl, Propyl, Methoxyphenyl, Allyl oder β-Dimethylaminoethyl, • R^2 ein Wasserstoffatom, eine Methyl- oder Ethylgruppe, • R^3-(CH2)n-CH3 mit n=0-4, • -(CH2)n-CH2-O(S)R^IV mit n=0-4 und R^IV in der Bedeutung von Wasserstoff oder Alkyl mit 1 bis 4 Kohlenstoffatomen, • -CH=CH-(CH2)n-OR^V mit n=1-4 und R^V in der Bedeutung von Wasserstoff, Alkyl oder Alkanoyl mit jeweils 1 bis 4 Kohlenstoffatomen, • -C≡C-X mit X in der Bedeutung von Wasserstoff, Alkyl mit 1 bis 4 Kohlenstoffatomen oder Halogen, • -(CH2)n-CH2CN mit n=0-3 oder [drawing 3] Y mit Y in der Bedeutung von Wasserstoff oder OR^v mit R^V in der oben angegebenen Bedeutung, • R^4 Hydroxy, Alkyloxy oder Alkanoyloxy mit jeweils 1 bis 4 Kohlenstoffatomen oder R^3/R4 [drawing 4] wobei R^3 in a-Stellung und R^4 in β-Stellung oder R^3 in β-Stellung und R^4 in a-Stellung zum Steroidgerüst stehen, und • R^5 ein Wasserstoffatom oder eine a- oder β-ständige Alkylgruppe mit 1 bis 4 Kohlenstoffatomen bedeuten. […]

Row | SMILES | Prozentsatz kompletter Aborte [1] | Dosierung für voll abortive / maximale abortauslösende (antigestagene) Wirkung [2] | Abortrate [2]
1 | CC#C[C@]1(O)CC[C@H]2[C@@H]3CCC4=CC(=O)CCC4=C3[C@@H](c3ccc(N(C)C)cc3)C[C@@]21C [A, 11β-(4-Dimethylaminophenyl)-17β-hydroxy-17a-propinyl-4,9-estradien-3-on, reference compound] | 3,5% | > 3,0 mg/d | 
2 | CN(C)c1ccc([C@H]2C[C@]3(C)[C@@H](CC[C@@]3(O)CCCO)[C@@H]3CCC4=CC(=O)CCC4=C32)cc1 [B, 11 β-(4-Dimethylaminophenyl)-17β-hydroxy-17a-(3-hydroxypropyl)-13a-methyl-4,9-go-nadien-3-on] | 35,4% | ≥ 1,0 mg/d | 4/4
3 | CN(C)c1ccc([C@H]2C[C@]3(C)[C@@H](CC[C@]3(O)CCCO)[C@@H]3CCC4=CC(=O)CCC4=C32)cc1 [C, 11β-(4-Dimethylaminophenyl)-17α-hydroxy-17ß-(3-hydroxypropyl)-13a-methyl-4,9-go-nadien-3-on] | 52,3% | ≥ 1,0 mg/d | 4/4
